Source: patent publication US4602006A, “Ynenolactone protease inhibitors” (Syntex (U.S.A.) Inc., priority 1984, dated 1986)

Biological target: T1, Human Leukocyte Elastase (Homo sapiens, UniProt P08246)
T1 construct: fresh human leukocytes were obtained from a healthy donor; from tissue; host or cells: human leukocytes from a healthy donor (homogenized)
T1 sequence (P08246 30-247 limits assumed): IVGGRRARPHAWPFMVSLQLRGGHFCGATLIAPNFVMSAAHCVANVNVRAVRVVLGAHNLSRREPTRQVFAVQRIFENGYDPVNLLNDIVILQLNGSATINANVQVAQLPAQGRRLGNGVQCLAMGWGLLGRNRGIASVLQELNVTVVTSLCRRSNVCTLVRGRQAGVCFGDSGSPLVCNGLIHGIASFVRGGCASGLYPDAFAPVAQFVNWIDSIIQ
Test: Inactivation of Human Leukocyte Elastase (fluorogenic substrate assay)
Assay type: biochemical

In the case of `C#C/C=C1\CC(Cc2ccccc2)C(=O)O1` (stereo not shown) [3-Benzyl-5(E)-(prop-2-ynylidene)tetrahydro-2-furanone], the irreversibility of inactivation (0.24 nanomoles HL elastase + 4 microliters 2 mM inhibitor, 25° C., after 17 minutes chromatographed on Sephadex G-50) is reported as “irreversibility of this inactivation was shown”, the kinact (25° C., pH 7.8, substrate MeOSuc-Ala-Ala-Pro-Val-methylcoumarinamide, read-out: maximum inactivation rate) is reported as 0.09 s⁻¹ and the KI (inactivation) (half-maximal inactivation rate, 25° C., pH 7.8, read-out: inhibitor concentration required for half-maximal rate) is reported as 4.1 µM. The “mode of enzyme inactivation” value (inhibitor added after recording the uninhibited rate) was “inactivated in a time and concentration dependent manner”.
